The source of these data is patent US20260015351A1, “METHODS AND COMPOUNDS FOR INHIBITING MKK7 ENZYMES” (AXONIS THERAPEUTICS, INC., priority 2022, published 2026).

The target of the first assay is T1, MKK7 (Homo sapiens (Human), UniProt O14733). As to the kind of experiment: In vitro competitive binding assay (kinase-tagged phage / qPCR). The note with it: 11-point 3-fold dilution series; Hill slope set to -1. How it is done: Kinase-tagged T7 phage strains were prepared in an E. coli host derived from the BL21 strain. E. coli were grown to log-phase and infected with T7 phage and incubated with shaking at 32° C. until lysis. The lysates were centrifuged and filtered to remove cell debris. The remaining kinases were produced in HEK-293 cells and subsequently tagged with DNA for qPCR detection. Streptavidin-coated magnetic beads were treated with biotinylated small molecule ligands for 30 minutes at room temperature to generate affinity resins for kinase assays. The liganded beads were blocked with excess biotin and washed with blocking buffer (SeaBlock (Pierce), 1% BSA, 0.05% Tween 20, 1 mM DTT) to remove unbound ligand and to reduce non-specific binding. […] Kds were determined using an 11-point 3-fold compound dilution series with three DMSO control points. […] The kinase concentration in the eluates was measured by qPCR.
T1 sequence (O14733 whole entry): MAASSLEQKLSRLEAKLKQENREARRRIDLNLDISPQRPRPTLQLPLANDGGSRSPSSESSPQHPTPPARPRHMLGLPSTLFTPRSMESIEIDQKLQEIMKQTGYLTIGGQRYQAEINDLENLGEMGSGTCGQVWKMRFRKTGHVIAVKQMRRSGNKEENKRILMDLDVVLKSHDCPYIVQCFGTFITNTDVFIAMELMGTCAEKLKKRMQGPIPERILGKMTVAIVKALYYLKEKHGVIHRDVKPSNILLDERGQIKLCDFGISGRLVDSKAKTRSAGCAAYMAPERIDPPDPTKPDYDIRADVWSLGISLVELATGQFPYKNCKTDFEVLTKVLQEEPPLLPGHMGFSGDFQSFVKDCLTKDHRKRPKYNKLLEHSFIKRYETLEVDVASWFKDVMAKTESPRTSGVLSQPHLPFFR
An 11-point 3-fold serial dilution of each test compound was prepared in 100% DMSO at 100× final test concentration and subsequently diluted to 1× in the assay (final DMSO concentration=1%). Most Kds were determined using a compound top concentration=30,000 nM. […]
Binding constants (Kds) were calculated with a standard dose-response curve using the Hill equation: […]
`C=CC(=O)N1CCc2ccc(-c3n[nH]c4cc(C)ccc34)cc21` [Compound 4, 1-[6-(6-methyl-1H-indazol-3-yl)-2,3-dihydroindol-1-yl]prop-2-en-1-one] registered a Kd of 7.8 nM.

`C=CC(=O)N1CCCc2ccc(-c3n[nH]c4cc(C)ccc34)cc21` [Compound 12, 1-[7-(6-methyl-1H-indazol-3-yl)-3,4-dihydro-2H-quinolin-1-yl]prop-2-en-1-one] displayed a Kd of 71 nM.

A further assay concerns the target T1, MKK7. The assay can be described thus: MKK7 ADP-Glo in vitro pharmacology assay. The following applies: calculated from remaining activity (%). In kind it is biochemical. On the procedure:
A study was conducted to determine the pharmacology of Compounds 1-18 in vitro in a plurality of biological matrices. Compounds 1-18 were prepared into proper concentrations of DMSO solution. The compound stock was then serially diluted into 10 concentrations by 3-fold dilution in 384 pp-plate. 5 nL of compound stock was transferred to a 384 plate. The compound stock was then diluted to 0.74 nM using a solution, which contained 0.79 mL of water, 0.2 mL of 5× Buffer, 2 μL of DTT, 6.66 μL of 7.5% BSA, and 5 μL of 10 mM ATP, to form an MKK7 mixture. The MKK7 mixture was then pre-warmed and 2.5 μL was added to each well designated for the “Test compound” and “High control” well, 2.5 μL solution 1 to each well designated for the “Low control” well. The well was incubated for 30 min and centrifuged at room temperature. Following centrifugation, 5 μL of ADD-Glo Reagent was added to each well and incubated for 60 min after centrifugation at room temperature. 10 μL of ADP-Glo Detection was then added to each well and incubated for 30 min after centrifugation in dark at room temperature. IC50 values were calculated based on the remaining activity (%) using read conversion ratio (CR).
Consider `C=CC(=O)N1CCc2ccc(-c3n[nH]c4cnccc34)cc21` [Compound 1, 1-(6-{1H-pyrazolo[3,4-c]pyridin-3-yl}-2,3-dihydroindol-1-yl)prop-2-en-1-one], for which the IC50 is 4.8 nM.

For the compound `C=CC(=O)N1CCc2c(-c3n[nH]c4ccccc34)cccc21` [Compound 2, 1-[4-(1H-indazol-3-yl)-2,3-dihydroindol-1-yl]prop-2-en-1-one], the IC50 is 92 nM.

`C=CC(=O)N1CCc2ccc(-c3n[nH]c4ccncc34)cc21` [Compound 3, 1-(6-{1H-pyrazolo[4,3-c]pyridin-3-yl}-2,3-dihydroindol-1-yl)prop-2-en-1-one]: the IC50 is 30 nM.

For the compound `C=CC(=O)N1CCc2ccc(-c3n[nH]c4cc(C)ccc34)cc21` [Compound 4, 1-[6-(6-methyl-1H-indazol-3-yl)-2,3-dihydroindol-1-yl]prop-2-en-1-one], the IC50 is 23 nM.

With `N#C/C=C/C(=O)N1CCc2ccc(-c3n[nH]c4ccccc34)cc21` [Compound 5, (2E)-4-[6-(1H-indazol-3-yl)-2,3-dihydroindol-1-yl]-4-oxobut-2-enenitrile], the IC50 is 70 nM.

With `CN(C)C/C=C/C(=O)N1CCc2ccc(-c3n[nH]c4ccccc34)cc21` [Compound 6, (2E)-4-(dimethylamino)-1-[6-(1H-indazol-3-yl)-2,3-dihydroindol-1-yl]but-2-en-1-one], the IC50 was 180 nM.

For the compound `CCOC(=O)/C=C/C(=O)N1CCc2ccc(-c3n[nH]c4ccccc34)cc21` [Compound 7, ethyl (2E)-4-[6-(1H-indazol-3-yl)-2,3-dihydroindol-1-yl]-4-oxobut-2-enoate], the IC50 is 3900 nM.

With `C=C(F)C(=O)N1CCc2ccc(-c3n[nH]c4ccccc34)cc21` [Compound 8, 2-fluoro-1-[6-(1H-indazol-3-yl)-2,3-dihydroindol-1-yl]prop-2-en-1-one], the IC50 was 840 nM.

Regarding `C/C=C/C(=O)N1CCc2ccc(-c3n[nH]c4ccccc34)cc21` [Compound 9, (2E)-1-[6-(1H-indazol-3-yl)-2,3-dihydroindol-1-yl]but-2-en-1-one], the IC50 was 1100 nM.

As to `C=CC(=O)N1CCCc2ccc(-c3n[nH]c4cnccc34)cc21` [Compound 10, 1-(7-{1H-pyrazolo[3,4-c]pyridin-3-yl}-3,4-dihydro-2H-quinolin-1-yl)prop-2-en-1-one], the IC50 was 550 nM.

Take `C=CC(=O)N1CCCc2ccc(-c3n[nH]c4ccncc34)cc21` [Compound 11, 1-(7-{1H-pyrazolo[4,3-c]pyridin-3-yl}-3,4-dihydro-2H-quinolin-1-yl)prop-2-en-1-one]: the IC50 is 1400 nM.

In the case of `C=CC(=O)N1CCCc2ccc(-c3n[nH]c4cc(C)ccc34)cc21` [Compound 12, 1-[7-(6-methyl-1H-indazol-3-yl)-3,4-dihydro-2H-quinolin-1-yl]prop-2-en-1-one], the IC50 is 160 nM.

As for `C=CC(=O)N1CCOc2ccc(-c3n[nH]c4ccccc34)cc21` [Compound 13, 1-[6-(1H-indazol-3-yl)-2,3-dihydro-1,4-benzoxazin-4-yl]prop-2-en-1-one], the half-maximal inhibitory concentration (IC50) was 140 nM.

On to `C=CC(=O)N1CCc2ccc(-c3n[nH]c4ccccc34)cc21` [Compound 14, 1-[6-(1H-indazol-3-yl)-2,3-dihydroindol-1-yl]prop-2-en-1-one], for which the IC50 was 19 nM.

In the case of `C=CC(=O)N1c2cc(-c3n[nH]c4ncccc34)ccc2CC1C` (stereo not drawn) [Compound 15, 1-[2-methyl-6-{1H-pyrazolo [3,4-b]pyridin-3-yl}-2,3-dihydroindol-1-yl]prop-2-en-1-one], the IC50 was 440 nM.

In the case of `C=CC(=O)N1c2cc(-c3n[nH]c4ncccc34)ccc2C[C@@H]1C` [Compound 15-B], the IC50 was 160 nM.

In the case of `C=CS(=O)(=O)N1CCc2ccc(-c3n[nH]c4ncccc34)cc21` [Compound 16, 1-(ethenesulfonyl)-6-{1H-pyrazolo[3,4-b]pyridin-3-yl}-2,3-dihydroindole], the IC50 was 7.7 nM.

`C=CC(=O)N1CCc2ccc(-c3n[nH]c4ncccc34)c(F)c21` [Compound 17, 1-(7-fluoro-6-{1H-pyrazolo[3,4-b]pyridin-3-yl}-2,3-dihydroindol-1-yl)prop-2-en-1-one]: the IC50 is 88 nM.

On to `C=CC(=O)N1CCc2ccc(-c3n[nH]c4cc(C#N)ccc34)cc21` [Compound 18, 3-[1-(prop-2-enoyl)-2,3-dihydroindol-6-yl]-1H-indazole-6-carbonitrile], for which the IC50 is 6 nM.

For orientation: Kd means a measure of binding affinity in units of concentration. The low end stands for tighter binding, the high end for weaker binding. As a reminder, the IC50 is the concentration that gives 50% inhibition.
